Test results reported in US8895585B2, “Nicotinamide derivative or salt thereof” (FUJIFILM Corporation, priority 2010, dated 2014).
Like-named read-outs stand apart in the source and are kept apart here.

Experiments:
THP-1 cells = assay: TNFα generation assay; type: cell-based, human
In short: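 Secreted TNFα in supernatant quantified by ELISA or AlphaLISA after 7 h culture on human IgG-coated wells (10 μg/ml coating). Cells were IFN-γ-differentiated THP-1 (10 ng/ml, 2 days), exposed to compound for 30 min at room temperature before plating.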

[1] = target: T1, glutathione S-transferase (GST)-fused full-length human Syk protein (Homo sapiens, UniProt P43405); assay: Syk enzyme assay; type: biochemical
T1 construct: (GST)-fused full-length human Syk protein; GST (glutathione S-transferase); purchased Carna Biosciences
In short: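 GST-tagged full-length human Syk (baculovirus) preincubated with compound 15 min at room temperature (pH 7.0, 10 mM MgCl2), then reacted 40 min with 0.4 μM biotinylated peptide substrate and 27 μM ATP (final). Phosphorylation read by HTRF (615/665 nm) after EDTA stop; IC50 reported.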

[2] = Homo sapiens, THP-1, THP-1 cells, Table 22, read-out: IC50 in TNFα generation assay
[3] = Syk enzyme assay, Test Example 1, read-out: IC50 of Syk-inhibitory activity

| SMILES | IC50 (THP-1 cells; [2]) [nM] | IC50 [1, 3] [nM] | IC50 (THP-1 cells; THP-1 cells, Table 22, read-out: IC50 in TNFα generation assay) [nM] | IC50 (THP-1 cells; Homo sapiens, THP-1, 7 h, IFN-γ-differentiated THP-1 cells on human IgG-coated plate, cultured 7 hours, read-out: TNFα generation inhibitory activity (IC50)) [nM] | IC50 ([1]; read-out: Syk-inhibitory activity (IC50)) [nM] |
| --- | --- | --- | --- | --- | --- |
| NC(=O)c1cc(F)c(N[C@@H]2CCCC[C@@H]2N)nc1Nc1cncc2c1ccn2CCN1CCCC1 [Example 004-007] | 65 to 130 | < 10 | – | – | – |
| NC(=O)c1cc(F)c(N[C@@H]2CCCC[C@@H]2N)nc1Nc1cnc2c(ccn2CCN2CCCC2)c1 [Example 004-022] | 65 to 130 | 10 to 50 | – | – | – |
| NC(=O)c1cc(F)c(N[C@@H]2CCCC[C@@H]2N)nc1Nc1cnc2c(ccn2CCN2CCOCC2)c1 [Example 004-024] | 130 to 200 | 50 to 100 | – | – | – |
| NC(=O)c1cc(F)c(N[C@@H]2CCCC[C@@H]2N)nc1Nc1ccnc2c1ccn2CCN1CCOCC1 [Example 004-025] | < 65 | < 10 | – | – | – |
| CCN(CC)CCn1ccc2c(Nc3nc(N[C@@H]4CCCC[C@@H]4N)c(F)cc3C(N)=O)ccnc21 [Example 004-028] | 65 to 130 | < 10 | – | – | – |
| NC(=O)c1cc(F)c(N[C@@H]2CCCC[C@@H]2N)nc1Nc1ccnc2c1ccn2CCN1CCCCC1 [Example 004-029] | 130 to 200 | < 10 | – | – | – |
| CN(C)CCCn1ccc2c(Nc3nc(N[C@@H]4CCCC[C@@H]4N)c(F)cc3C(N)=O)ccnc21 [Example 004-030] | 130 to 200 | < 10 | – | – | – |
| COCCn1ccc2c(Nc3nc(N[C@@H]4CCCC[C@@H]4N)c(F)cc3C(N)=O)ccnc21 [Example 004-035] | 130 to 200 | < 10 | – | – | – |
| CC(C)Cn1ccc2c(Nc3nc(N[C@@H]4CCCC[C@@H]4N)c(F)cc3C(N)=O)ccnc21 [Example 004-036] | 65 to 130 | < 10 | – | – | – |
| NC(=O)c1cc(F)c(N[C@@H]2CCCC[C@@H]2N)nc1Nc1ccnc2c1ccn2C1CC1 [Example 004-037] | 65 to 130 | < 10 | – | – | – |
| NC(=O)c1cc(F)c(N[C@@H]2CCCC[C@@H]2N)nc1Nc1ccnc2c1ccn2CC(F)(F)F [Example 004-039] | 130 to 200 | < 10 | – | – | – |
| NC(=O)c1cc(F)c(N[C@@H]2CCCC[C@@H]2N)nc1Nc1ccnc2c1ccn2CC1CC1 [Example 004-040] | 130 to 200 | < 10 | – | – | – |
| Cn1ccc2c(Nc3nc(N[C@H](Cc4ccccc4)C(N)=O)c(F)cc3C(N)=O)ccnc21 [Example 004-044] | 130 to 200 | < 10 | – | – | – |
| NC(=O)c1cc(F)c(N[C@H](Cc2ccccc2)C(N)=O)nc1Nc1ccnc2c1ccn2CC1CC1 [Example 004-046] | 130 to 200 | < 10 | – | – | – |
| CC(C)C[C@H](CN)Nc1nc(Nc2cncc(-n3nccn3)c2)c(C(N)=O)cc1F [Example 004-195, (R)-2-((5-(2H-1,2,3-triazol-2-yl)pyridin-3-yl)amino)-6-((1-amino-4-methylpentan-2-yl)amino)-5-fluoronicotinamide] | 65 to 130 | < 10 | – | – | – |
| CC(C)C[C@H](CN)Nc1nc(Nc2cnc3c(N)cccc3c2)c(C(N)=O)cc1F [Example 004-196, (R)-6-((1-amino-4-methylpentan-2-yl)amino)-2-((8-aminoquinolin-3-yl)amino)-5-fluoronicotinamide] | 130 to 200 | < 10 | – | – | – |
| COc1ncc(Nc2nc(N[C@@H]3CCCC[C@@H]3N)c(F)cc2C(N)=O)c2cc[nH]c12 [Example 004-235] | 65 to 130 | < 10 | – | – | – |
| NCCNc1nc(Nc2ccc3ncccc3c2)c(C(N)=O)cc1F [Example 6-26, 6-((2-aminoethyl)amino)-5-fluoro-2-(quinolin-6-ylamino)nicotinamide] | – | – | – | ≤ 200 | ≤ 1000 |
| C[C@H](N)CNc1nc(Nc2cnc3ccccc3c2)c(C(N)=O)cc1F [Example 006-092, (S)-6-((2-aminopropyl)amino)-5-fluoro-2-((quinolin-3-yl)amino)nicotinamide] | < 65 | < 10 | – | – | – |
| COc1cc(Nc2nc(NC[C@H](C)N)c(F)cc2C(N)=O)cc(OC)c1 [Example 006-093, (S)-6-((2-aminopropyl)amino)-2-(3,5-dimethoxyphenylamino)-5-fluoronicotinamide] | < 65 | < 10 | – | – | – |
| Cc1cncc(Nc2nc(NC[C@H](C)N)c(F)cc2C(N)=O)c1 [Example 006-094, (S)-6-((2-aminopropyl)amino)-5-fluoro-2-((5-methylpyridin-3-yl)amino)nicotinamide] | 65 to 130 | 10 to 50 | – | – | – |
| COc1cc(Nc2nc(NC[C@H](C)N)c(F)cc2C(N)=O)ccn1 [Example 006-096, (S)-6-((2-aminopropyl)amino)-5-fluoro-2-((2-methoxypyridin-4-yl)amino)nicotinamide] | < 65 | 10 to 50 | – | – | – |
| C[C@H](N)CNc1nc(Nc2cccc(-n3nccn3)c2)c(C(N)=O)cc1F [Example 006-097, (S)-2-((3-(2H-1,2,3-triazol-2-yl)phenyl)amino)-6-((2-aminopropyl)amino)-5-fluoronicotinamide] | < 65 | < 10 | – | – | – |
| Cc1cccc(Nc2nc(NC[C@H](C)N)c(F)cc2C(N)=O)c1 [Example 006-099] | < 65 | 10 to 50 | – | – | – |
| COc1cc(Nc2nc(N[C@H](C)CN)c(F)cc2C(N)=O)cc(OC)c1 [Example 006-100, (R)-6-((1-aminopopan-2-yl)amino)-2-((3,5-dimethoxyphenyl)amino)-5-fluoronicotinamide] | 65 to 130 | < 10 | – | – | – |
| Cc1cncc(Nc2nc(N[C@H](C)CN)c(F)cc2C(N)=O)c1 [Example 006-101, (R)-6-((1-aminopropan-2-yl)amino)-5-fluoro-2-((5-methylpyridin-3-yl)amino)nicotinamide] | 65 to 130 | 10 to 50 | – | – | – |

Continued, values first:

| IC50 (THP-1 cells; [2]) [nM] | IC50 [1, 3] [nM] | IC50 (THP-1 cells; THP-1 cells, Table 22, read-out: IC50 in TNFα generation assay) [nM] | IC50 (THP-1 cells; Homo sapiens, THP-1, 7 h, IFN-γ-differentiated THP-1 cells on human IgG-coated plate, cultured 7 hours, read-out: TNFα generation inhibitory activity (IC50)) [nM] | IC50 ([1]; read-out: Syk-inhibitory activity (IC50)) [nM] | SMILES |
| --- | --- | --- | --- | --- | --- |
| < 65 | 10 to 50 | – | – | – | NC(=O)c1cc(F)c(N[C@@H]2CCCC[C@@H]2N)nc1Nc1cnc2ccncc2c1 [Example 004-003] |
| 65 to 130 | 10 to 50 | – | – | – | NC(=O)c1cc(F)c(N[C@@H]2CCCC[C@@H]2N)nc1Nc1cncc2cccnc12 [Example 004-004] |
| 65 to 130 | < 10 | – | – | – | NC(=O)c1cc(F)c(N[C@@H]2CCCC[C@@H]2N)nc1Nc1cnc2c([N+](=O)[O-])cccc2c1 [Example 004-005] |
| 65 to 130 | < 10 | – | – | – | Cn1ccc2c(Nc3nc(N[C@@H]4CCCC[C@@H]4N)c(F)cc3C(N)=O)cncc21 [Example 004-006] |
| 130 to 200 | 10 to 50 | – | – | – | NC(=O)c1cc(F)c(N[C@@H]2CCCC[C@@H]2N)nc1Nc1cncc(C(=O)Nc2ccccc2)c1 [Example 004-011] |
| < 65 | < 10 | – | – | – | Cn1ccc2cc(Nc3nc(N[C@@H]4CCCC[C@@H]4N)c(F)cc3C(N)=O)cnc21 [Example 004-012] |
| 130 to 200 | < 10 | – | – | – | NC(=O)c1cc(F)c(N[C@@H]2CCCC[C@@H]2N)nc1Nc1ccc2nc(-c3ccccc3)cn2c1 [Example 004-014] |
| 65 to 130 | < 10 | – | – | – | COC(=O)c1cncc(Nc2nc(N[C@@H]3CCCC[C@@H]3N)c(F)cc2C(N)=O)c1 [Example 004-016] |
| 65 to 130 | 10 to 50 | – | – | – | Cc1cc(Nc2nc(N[C@@H]3CCCC[C@@H]3N)c(F)cc2C(N)=O)ccn1 [Example 004-018] |
| 130 to 200 | 10 to 50 | – | – | – | Cc1ccncc1Nc1nc(N[C@@H]2CCCC[C@@H]2N)c(F)cc1C(N)=O [Example 004-019] |
| 130 to 200 | < 10 | – | – | – | NC(=O)c1cc(F)c(N[C@@H]2CCCC[C@@H]2N)nc1Nc1cncc2c1cnn2-c1ccccc1 [Example 004-020] |
| < 65 | < 10 | – | – | – | NC(=O)c1cc(F)c(N[C@@H]2CCCC[C@@H]2N)nc1Nc1cnc2ncsc2c1 [Example 004-026] |
| 130 to 200 | 10 to 50 | – | – | – | Cn1cnc2cc(Nc3nc(N[C@@H]4CCCC[C@@H]4N)c(F)cc3C(N)=O)cnc21 [Example 004-027] |
| 130 to 200 | < 10 | – | – | – | CN(C)c1cccc2cc(Nc3nc(N[C@@H]4CCCC[C@@H]4N)c(F)cc3C(N)=O)cnc12 [Example 004-032] |
| 130 to 200 | < 10 | – | – | – | NC(=O)c1cc(F)c(N[C@@H]2CCCC[C@@H]2N)nc1Nc1cnc2c(N3CCOCC3)cccc2c1 [Example 004-033] |
| 65 to 130 | 100 to 1000 | – | – | – | NC(=O)c1cc(F)c(N[C@@H]2CCCC[C@@H]2N)nc1Nc1cncc(-n2ccnn2)c1 [Example 004-043] |
| 65 to 130 | 10 to 50 | – | – | – | NC(=O)c1cc(F)c(N[C@@H]2CCCC[C@@H]2N)nc1Nc1cncc(-c2cccnc2)c1 [Example 004-103] |
| 130 to 200 | 10 to 50 | – | – | – | NC(=O)c1cc(F)c(N[C@@H]2CCCC[C@@H]2N)nc1Nc1cncc(-c2ccncc2)c1 [Example 004-104] |
| 130 to 200 | < 10 | – | – | – | NC(=O)c1cc(F)c(N[C@@H]2CCCC[C@@H]2N)nc1Nc1cncc(-c2ccccn2)c1 [Example 004-106] |
| 130 to 200 | 10 to 50 | – | – | – | NC(=O)c1cc(F)c(N[C@@H]2CCCC[C@@H]2N)nc1Nc1cnc2c(NCC3CC3)cccc2c1 [Example 004-134] |
| 130 to 200 | 10 to 50 | – | – | – | NC(=O)c1cc(F)c(N[C@@H]2CCCC[C@@H]2N)nc1Nc1cnc2c(c1)OCO2 [Example 004-160] |
| – | < 10 | 65 to 130 | – | – | COCCn1ncc2cc(Nc3nc(N[C@@H]4CCCC[C@@H]4N)c(F)cc3C(N)=O)ccc21 [Example 004-172, 6-((1R,2S)-2-aminocyclohexylamino)-5-fluoro-2-((1-(2-methoxyethyl)-1H-indazol-5-yl)-amino)nicotinamide] |
| 65 to 130 | 10 to 50 | – | – | – | Cn1ncc2cc(Nc3nc(N[C@@H]4CCCC[C@@H]4N)c(F)cc3C(N)=O)cnc21 [Example 004-213] |
